# Assay results: PubChem BioAssay AID328 (DTP/NCI, 2004)
# “And” between values parts separate entries of the source, which are not always exact repeats. Equal entries are not always repeated. Inconclusive results and toxic doses are left out.
# Tested on: BDF1 mice, P388 leukemia ip, median survival T/C
# Assay: NCI In Vivo Anticancer Drug Screen. Data for tumor model P388 Leukemia (intraperitoneal) in B6D2F1 (BDF1) mice
# Details: endpoint: median survival time, higher = longer survival
# Method: The antitumor activity of compounds was measured in mice bearing transplantable tumors. Survival or tumor size were measured and the results are expressed as the measurement made in the treated group (T) divided by the measurement made in the vehicle treated control group (C). The tumor model used in this assay is P388 Leukemia (intraperitoneal) in B6D2F1 (BDF1) mice
# [1] = dose: 50.0 mg/kg/injection, schedule: Q01DX009 (ip), vehicle: Klucel (hydroxypropylcellulose) (HPC)
# [2] = dose: 100.0 mg/kg/injection, schedule: Q01DX009 (ip), vehicle: Klucel (hydroxypropylcellulose) (HPC)
# [3] = dose: 50.0 mg/kg/injection, schedule: Q01DX005 (ip), vehicle: distilled water + Tween-80
# [4] = dose: 3.13 mg/kg/injection, schedule: Q04DX003 (ip), vehicle: saline with Tween-80
# [5] = dose: 6.25 mg/kg/injection, schedule: Q04DX003 (ip), vehicle: saline with Tween-80
# [6] = dose: 12.5 mg/kg/injection, schedule: Q04DX003 (ip), vehicle: saline with Tween-80
# [7] = dose: 100.0 mg/kg/injection, schedule: Q04DX003 (ip), vehicle: saline
# [8] = dose: 200.0 mg/kg/injection, schedule: Q04DX003 (ip), vehicle: saline
# [9] = dose: 50.0 mg/kg/injection, schedule: Q01DX009 (ip), vehicle: saline with Tween-80
# [10] = dose: 100.0 mg/kg/injection, schedule: Q01DX009 (ip), vehicle: saline with Tween-80
# [11] = dose: 25.0 mg/kg/injection, schedule: Q04DX003 (ip), vehicle: saline
# [12] = dose: 50.0 mg/kg/injection, schedule: Q04DX003 (ip), vehicle: saline
# [13] = dose: 25.0 mg/kg/injection, schedule: Q01DX009 (ip), vehicle: saline
# [14] = dose: 50.0 mg/kg/injection, schedule: Q01DX009 (ip), vehicle: saline
# [15] = dose: 100.0 mg/kg/injection, schedule: Q01DX009 (ip), vehicle: saline
smiles,measurement,setting,value
CCn1nnc2c(N(C)C)nc(N)nc21,T/C,"dose: 25.0 mg/kg/injection, schedule: Q01DX009 (ip), vehicle: Klucel (hydroxypropylcellulose) (HPC)",92 % of control
same,T/C,[1],92 % of control
same,T/C,"dose: 50.0 mg/kg/injection, schedule: Q04DX003 (ip), vehicle: Klucel (hydroxypropylcellulose) (HPC)",100 % of control
same,T/C,[2],92 % of control
same,T/C,"dose: 100.0 mg/kg/injection, schedule: Q04DX003 (ip), vehicle: Klucel (hydroxypropylcellulose) (HPC)",104 % of control
O=C(NO)c1cc(O)c(O)c(O)c1,T/C,[3],123 % of control
same,T/C,"dose: 200.0 mg/kg/injection, schedule: Q01DX005 (ip), vehicle: distilled water + Tween-80",150 % of control
same,T/C,"dose: 400.0 mg/kg/injection, schedule: Q01DX005 (ip), vehicle: distilled water + Tween-80",153 % of control
CO[C@H]1/C=C/O[C@@]2(C)Oc3c(C)c(O)c4c(O)c(c(/C=N/N5CCN(C)CC5)c(O)c4c3C2=O)NC(=O)/C(C)=C\C=C\[C@H](C)[C@H](O)[C@@H](C)[C@@H](O)[C@@H](C)[C@H](OC(C)=O)[C@@H]1C,T/C,"dose: 50.0 mg/kg/injection, schedule: Q01DX010 (ip), vehicle: saline",109 % of control
same,T/C,"dose: 100.0 mg/kg/injection, schedule: Q01DX010 (ip), vehicle: saline",114 % of control
same,T/C,"dose: 200.0 mg/kg/injection, schedule: Q01DX010 (ip), vehicle: saline",109 % of control
same,T/C,"dose: 400.0 mg/kg/injection, schedule: Q01DX010 (ip), vehicle: saline",109 % of control
O=C1C(Cl)=CC(=NS(=O)(=O)c2ccccc2)C=C1Cl,T/C,[4],110 % of control
same,T/C,[5],110 % of control
same,T/C,[6],110 % of control
C1CCCCCC(NC2=NCCO2)CCCCC1,T/C,[4],95 % of control
same,T/C,[5],95 % of control
same,T/C,[6],108 % of control
same,T/C,"dose: 25.0 mg/kg/injection, schedule: Q04DX003 (ip), vehicle: saline with Tween-80",90 % of control
same,T/C,"dose: 50.0 mg/kg/injection, schedule: Q04DX003 (ip), vehicle: saline with Tween-80",90 % of control
Cc1c2ccccc2cc2cccc[n+]12,T/C,"dose: 0.63 mg/kg/injection, schedule: Q01DX010 (ip), vehicle: saline",100 % of control
same,T/C,"dose: 1.25 mg/kg/injection, schedule: Q01DX010 (ip), vehicle: saline",100 % of control
same,T/C,"dose: 2.5 mg/kg/injection, schedule: Q01DX010 (ip), vehicle: saline",105 % of control and 120 % of control
same,T/C,"dose: 10.0 mg/kg/injection, schedule: Q01DX010 (ip), vehicle: saline",150 % of control
same,T/C,"dose: 40.0 mg/kg/injection, schedule: Q04DX003 (ip), vehicle: saline",150 % of control
same,T/C,"dose: 80.0 mg/kg/injection, schedule: Q04DX003 (ip), vehicle: saline",100 % of control
CCCCCC(C(C)=O)(C1=NC(C)(C)CC(C)O1)c1ccccc1 (stereo not drawn),T/C,[7],110 % of control
same,T/C,[8],95 % of control
CCN(CC)CCCC(C)NS(=O)(=O)c1cccc2c(N(C)C)cccc12 (stereo not drawn),T/C,"dose: 6.25 mg/kg/injection, schedule: Q04DX003 (ip), vehicle: water",97 % of control
same,T/C,"dose: 12.5 mg/kg/injection, schedule: Q04DX003 (ip), vehicle: water",108 % of control
same,T/C,"dose: 25.0 mg/kg/injection, schedule: Q04DX003 (ip), vehicle: water",118 % of control
same,T/C,"dose: 50.0 mg/kg/injection, schedule: Q04DX003 (ip), vehicle: water",118 % of control
same,T/C,"dose: 100.0 mg/kg/injection, schedule: Q04DX003 (ip), vehicle: water",115 % of control
CCN(CC)CCNc1ccc(C)c2sc3ccc(O)cc3c(=O)c12,T/C,[9],183 % of control
same,T/C,[10],94 % of control
CC[C@@H]1CN(C)[C@H]2Cc3c([nH]c4ccccc34)C(=O)C[C@H]1C2C(=O)OC (stereo partly drawn),T/C,"dose: 100.0 mg/kg/injection, schedule: Q01DX009 (ip), vehicle: saline sonified",90 % of control
same,T/C,"dose: 100.0 mg/kg/injection, schedule: Q04DX003 (ip), vehicle: saline sonified",100 % of control
same,T/C,"dose: 200.0 mg/kg/injection, schedule: Q01DX009 (ip), vehicle: saline sonified",115 % of control
same,T/C,"dose: 200.0 mg/kg/injection, schedule: Q04DX003 (ip), vehicle: saline sonified",100 % of control
same,T/C,"dose: 400.0 mg/kg/injection, schedule: Q01DX009 (ip), vehicle: saline sonified",100 % of control
same,T/C,"dose: 400.0 mg/kg/injection, schedule: Q04DX003 (ip), vehicle: saline sonified",90 % of control
C(=NC12CC3CC(CC(C3)C1)C2)c1ccccc1,T/C,[11],105 % of control
same,T/C,[12],99 % of control
same,T/C,[7],107 % of control
same,T/C,[8],105 % of control
Nc1cc(Cl)c2[nH]cnc2n1,T/C,"dose: 6.25 mg/kg/injection, schedule: Q01DX009 (ip), vehicle: saline",114 % of control
same,T/C,"dose: 12.5 mg/kg/injection, schedule: Q01DX009 (ip), vehicle: saline",100 % of control
same,T/C,[13],110 % of control
same,T/C,[3],105 % of control
same,T/C,[14],115 % of control
same,T/C,[15],100 % of control
C(=C/c1ccnc2ccccc12)/c1cccs1,T/C,"dose: 25.0 mg/kg/injection, schedule: Q01DX009 (ip), vehicle: saline with Tween-80",102 % of control
same,T/C,[9],110 % of control
same,T/C,[10],111 % of control
same,T/C,"dose: 200.0 mg/kg/injection, schedule: Q01DX009 (ip), vehicle: saline with Tween-80",119 % of control
CS(=O)(=O)OCCN(CCOS(C)(=O)=O)c1ccc(N=O)cc1,T/C,"dose: 0.5 mg/kg/injection, schedule: Q01DX010 (ip), vehicle: saline",122 % of control
same,T/C,"dose: 1.0 mg/kg/injection, schedule: Q01DX010 (ip), vehicle: saline",104 % of control
same,T/C,"dose: 2.0 mg/kg/injection, schedule: Q01DX010 (ip), vehicle: saline",86 % of control and 113 % of control
same,T/C,"dose: 62.5 micrograms/kg/injection, schedule: Q01DX010 (ip), vehicle: saline",158 % of control
same,T/C,"dose: 125.0 micrograms/kg/injection, schedule: Q01DX010 (ip), vehicle: saline",166 % of control
OC1C2CCC(CC2)C1O (stereo not drawn),T/C,"dose: 4.5 mg/kg/injection, schedule: Q01DX009 (ip), vehicle: saline with Tween-80",100 % of control
same,T/C,"dose: 9.0 mg/kg/injection, schedule: Q01DX009 (ip), vehicle: saline with Tween-80",86 % of control
same,T/C,"dose: 9.0 mg/kg/injection, schedule: Q04DX003 (ip), vehicle: saline with Tween-80",90 % of control
same,T/C,"dose: 18.0 mg/kg/injection, schedule: Q04DX003 (ip), vehicle: saline with Tween-80",90 % of control
O=[N+]([O-])c1cccc(N/N=C\c2c(Cl)n(-c3ccccc3)c3ccccc23)c1,T/C,"dose: 100.0 mg/kg/injection, schedule: Q04DX002 (ip), vehicle: Klucel (hydroxypropylcellulose) (HPC)",97 % of control
same,T/C,"dose: 200.0 mg/kg/injection, schedule: Q04DX002 (ip), vehicle: Klucel (hydroxypropylcellulose) (HPC)",93 % of control
same,T/C,"dose: 400.0 mg/kg/injection, schedule: Q04DX002 (ip), vehicle: Klucel (hydroxypropylcellulose) (HPC)",99 % of control
O=S(=O)(c1cccc(C(F)(F)F)c1)N1c2ccccc2-n2cccc2C1c1cccnc1 (stereo not drawn),T/C,[1],94 % of control
same,T/C,[2],103 % of control
same,T/C,"dose: 200.0 mg/kg/injection, schedule: Q01DX009 (ip), vehicle: Klucel (hydroxypropylcellulose) (HPC)",96 % of control
CC(C)(N)COS(=O)(=O)O,T/C,[14],100 % of control
same,T/C,[15],90 % of control and 100 % of control
same,T/C,[7],100 % of control
same,T/C,"dose: 200.0 mg/kg/injection, schedule: Q01DX009 (ip), vehicle: saline",95 % of control
same,T/C,[8],100 % of control
same,T/C,"dose: 400.0 mg/kg/injection, schedule: Q01DX009 (ip), vehicle: saline",100 % of control
same,T/C,"dose: 400.0 mg/kg/injection, schedule: Q04DX003 (ip), vehicle: saline",100 % of control
CCCn1c(C)nc2cc(C(F)(F)F)cc(N)c21,T/C,"dose: 100.0 mg/kg/injection, schedule: Q04DX003 (ip), vehicle: saline with Tween-80",103 % of control
same,T/C,"dose: 200.0 mg/kg/injection, schedule: Q04DX003 (ip), vehicle: saline with Tween-80",92 % of control
same,T/C,"dose: 400.0 mg/kg/injection, schedule: Q04DX003 (ip), vehicle: saline with Tween-80",97 % of control
N=C1SCc2ccc3ccccc3c21,T/C,[9],104 % of control
same,T/C,[10],106 % of control
Nc1nc2ccccc2nc1N,T/C,[13],100 % of control
same,T/C,[11],100 % of control
same,T/C,[14],100 % of control
same,T/C,[12],95 % of control
same,T/C,[15],90 % of control
same,T/C,[7],91 % of control
